Assay results: ChEMBL document CHEMBL1687927, “Design and optimization of potent and orally bioavailable tetrahydronaphthalene Raf inhibitors” (J Med Chem, 2011)
Activity calls are given as the source filed them. The calls are words filed in the database; no cut-off is given here.

Key:
Mus musculus [1] = experiment: Plasma clearance in mouse at 1 mg/kg, iv and 10 mg, po in 10% HPbCD vehicle; format: ADME, organism-based; design: dose 1 mg/kg, route oral; conditions: in vivo
[2] = target: T1, Serine/threonine-protein kinase B-raf (Homo sapiens, UniProt P15056, V600E); experiment: Inhibition of raf kinase in human A375 cells assessed as decrease in MEK-mediated ERK phosphorylation after 3 hrs using 3,3',5,5'-tetramethylbenzidine liquid substrate system; format: cell-based; conditions: a-375
[3] = Oral bioavailability in mouse at 10 mg; format: ADME, organism-based; conditions: in vivo
[4] = target: T1, Serine/threonine-protein kinase B-raf
Mus musculus [5] = experiment: Volume of distribution at steady state in mouse at 1 mg/kg, iv or 10 mg, po; format: ADME, organism-based; design: dose 1 mg/kg, route oral; conditions: in vivo
[6] = AUC (0 to 24 hrs) in mouse at 10 mg, po in 10% HPbCD vehicle; format: ADME, organism-based; design: time < 24 hr, dose 10 mg, route oral; conditions: plasma
[7] = target: RAF proto-oncogene serine/threonine-protein kinase (Homo sapiens, UniProt P04049); experiment: Inhibition of C-Raf assessed as reduction in [33P]ATP incorporation into biotinylated substrate peptide after 3 hrs by flash plate assay
Mus musculus [8] = experiment: Inhibition of ERK phosphorylation in human A375M cells xenografted in mouse at 75 mg/kg, po administered as single dose in 10% HPbCD measured 24 hrs post dose by Li-Cor quantitative Western blot analysis relative to control; format: functional
Mus musculus [9] = experiment: Inhibition of ERK phosphorylation in human A375M cells xenografted in mouse at 75 mg/kg, po administered as single dose in 10% HPbCD measured 4 hrs post dose by Li-Cor quantitative Western blot analysis relative to control; format: functional
[10] = Inhibition of MEK
[11] = Inhibition of PDGFR
Homo sapiens [12] = experiment: Antitumor activity against human A375M cells xenografted mouse model assessed as partial tumor regression at 75 mg/kg, po qd for 21 days; format: functional, organism-based; design: dose 75 mg/kg
[13] = Plasma concentration in mouse xenografted with human A375M cells at 75 mg/kg, po administered as single dose in 10% HPbCD measured 4 hrs post dose by LC/MS/MS; format: ADME, organism-based; design: dose 75 mg/kg, route oral
[14] = Plasma concentration in mouse xenografted with human A375M cells at 75 mg/kg, po administered as single dose in 10% HPbCD measured 8 hrs post dose by LC/MS/MS; format: ADME, organism-based; design: dose 75 mg/kg, route oral
Mus musculus [15] = experiment: Inhibition of ERK phosphorylation in human A375M cells xenografted in mouse at 75 mg/kg, po administered as single dose in 10% HPbCD measured 8 hrs post dose by Li-Cor quantitative Western blot analysis relative to control; format: functional
[16] = Plasma concentration in mouse xenografted with human A375M cells at 75 mg/kg, po administered as single dose in 10% HPbCD measured 24 hrs post dose by LC/MS/MS; format: ADME, organism-based; design: dose 75 mg/kg, route oral
[17] = AUC (0 to 24 hrs) in mouse at 10 mg, po in 20% HPbCD vehicle; format: ADME, organism-based; design: dose 10 mg, time < 24 hr, route oral; conditions: plasma
[18] = Plasma concentration in mouse xenografted with human A375M cells at 100 mg/kg, po administered as single dose in 10% HPbCD measured 24 hrs post dose by LC/MS/MS; format: ADME, organism-based; design: dose 100 mg/kg, route oral
Mus musculus [19] = experiment: Inhibition of ERK phosphorylation in human A375M cells xenografted in mouse at 100 mg/kg, po administered as single dose in 10% HPbCD measured 24 hrs post dose by Li-Cor quantitative Western blot analysis relative to control; format: functional
Homo sapiens [20] = experiment: Antitumor activity against human A375M cells xenografted mouse model assessed as partial tumor regression at 100 mg/kg, po qd for 21 days; format: functional, organism-based; design: dose 100 mg/kg
[21] = Plasma concentration in mouse xenografted with human A375M cells at 100 mg/kg, po administered as single dose in 10% HPbCD measured 8 hrs post dose by LC/MS/MS; format: ADME, organism-based; design: dose 100 mg/kg, route oral
Mus musculus [22] = experiment: Inhibition of ERK phosphorylation in human A375M cells xenografted in mouse at 100 mg/kg, po administered as single dose in 10% HPbCD measured 4 hrs post dose by Li-Cor quantitative Western blot analysis relative to control; format: functional
Plasma = experiment: Plasma concentration in mouse assessed as (R)-3-((methyl amino)methyl)-N-(7-(7-oxo-5,6,7,8-tetrahydro-1,8-naphthyridin-4-yloxyl)-1,2,3,4-tetrahydronaphthalen-2-yl )-5-(trifluoromethyl)benzamide at 10 mg, po; format: ADME, organism-based; conditions: in vivo
Mus musculus [23] = experiment: Inhibition of ERK phosphorylation in human A375M cells xenografted in mouse at 100 mg/kg, po administered as single dose in 10% HPbCD measured 8 hrs post dose by Li-Cor quantitative Western blot analysis relative to control; format: functional
[24] = Plasma concentration in mouse xenografted with human A375M cells at 100 mg/kg, po administered as single dose in 10% HPbCD measured 4 hrs post dose by LC/MS/MS; format: ADME, organism-based; design: dose 100 mg/kg, route oral
[25] = Plasma clearance in mouse at 10 mg, po in 20% HPbCD vehicle; format: ADME, organism-based

T1 sequence (P15056 2-766 V600E limits assumed): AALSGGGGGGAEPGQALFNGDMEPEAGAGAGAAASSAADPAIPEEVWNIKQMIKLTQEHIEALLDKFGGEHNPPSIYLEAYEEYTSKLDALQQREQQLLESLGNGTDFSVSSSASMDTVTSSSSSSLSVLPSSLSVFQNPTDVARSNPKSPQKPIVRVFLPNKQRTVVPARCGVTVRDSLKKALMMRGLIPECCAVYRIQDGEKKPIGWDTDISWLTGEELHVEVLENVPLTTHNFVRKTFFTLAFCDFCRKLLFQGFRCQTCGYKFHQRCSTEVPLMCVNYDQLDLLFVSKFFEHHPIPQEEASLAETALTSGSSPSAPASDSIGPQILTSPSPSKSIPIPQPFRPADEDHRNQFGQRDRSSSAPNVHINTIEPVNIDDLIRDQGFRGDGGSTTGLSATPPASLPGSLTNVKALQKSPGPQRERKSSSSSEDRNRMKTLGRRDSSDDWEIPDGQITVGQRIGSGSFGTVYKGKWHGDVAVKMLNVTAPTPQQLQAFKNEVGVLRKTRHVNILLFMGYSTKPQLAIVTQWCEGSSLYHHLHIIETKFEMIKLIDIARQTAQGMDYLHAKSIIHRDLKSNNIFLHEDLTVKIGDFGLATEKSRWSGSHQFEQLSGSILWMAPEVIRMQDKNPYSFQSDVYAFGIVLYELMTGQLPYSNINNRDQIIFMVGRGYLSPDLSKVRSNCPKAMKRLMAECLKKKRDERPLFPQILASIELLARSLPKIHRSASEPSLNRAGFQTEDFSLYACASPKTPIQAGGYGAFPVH
Chain of RAF proto-oncogene serine/threonine-protein kinase (P04049 whole entry): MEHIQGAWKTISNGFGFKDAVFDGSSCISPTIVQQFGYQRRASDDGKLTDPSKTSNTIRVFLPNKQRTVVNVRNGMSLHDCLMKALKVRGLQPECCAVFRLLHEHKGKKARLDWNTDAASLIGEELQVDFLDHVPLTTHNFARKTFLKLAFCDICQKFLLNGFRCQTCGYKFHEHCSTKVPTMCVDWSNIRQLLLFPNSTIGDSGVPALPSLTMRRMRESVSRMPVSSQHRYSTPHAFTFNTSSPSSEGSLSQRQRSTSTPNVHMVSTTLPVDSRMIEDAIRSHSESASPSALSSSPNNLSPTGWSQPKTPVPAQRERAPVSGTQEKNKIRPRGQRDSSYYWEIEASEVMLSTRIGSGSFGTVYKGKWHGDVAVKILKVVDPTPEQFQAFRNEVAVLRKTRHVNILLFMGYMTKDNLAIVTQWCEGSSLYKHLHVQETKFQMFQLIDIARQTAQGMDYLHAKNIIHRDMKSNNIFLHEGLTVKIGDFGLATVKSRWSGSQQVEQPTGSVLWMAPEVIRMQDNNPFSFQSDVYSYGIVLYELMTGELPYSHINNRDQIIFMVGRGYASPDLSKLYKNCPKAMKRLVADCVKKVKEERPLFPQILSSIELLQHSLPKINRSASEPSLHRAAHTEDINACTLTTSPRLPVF

| Structure (SMILES) | IC50 [2] | bioavailability [3] | IC50 [4] | Vdss (Mus musculus [5]) | IC50 [7] | further results |
| --- | --- | --- | --- | --- | --- | --- |
| CC(C)NCc1cc(NC(=O)[C@H]2CCc3ccc(Oc4ccnc5c4CCC(=O)N5)cc3C2)cc(C(F)(F)F)c1 | 110 nM | 20% | 3.3 nM | 3.87 L/kg |  | CL (Mus musculus [1]): 0.32 L/h/kg; AUC(0-t) at 24 h [6]: 20.7 µM·h |
| CNC(=O)c1cc(Oc2ccc3c(c2)CC(C(=O)Nc2cc(CN)cc(C(F)(F)F)c2)CC3)ccn1 (stereo unspecified) | 1400 nM |  | 20 nM |  | 11 nM |  |
| CN(C)Cc1cc(C(=O)N[C@@H]2CCc3ccc(Oc4ccnc(NC(=O)C5CC5)c4)cc3C2)cc(C(F)(F)F)c1 | 70 nM | 22% | 2.9 nM | 2.19 L/kg |  | CL (Mus musculus [1]): 2.14 L/h/kg; AUC(0-t) at 24 h [6]: 0.51 µM·h |
| CC(=O)Nc1cc(Oc2ccc3c(c2)C[C@@H](C(=O)Nc2cc(CN)cc(C(F)(F)F)c2)CC3)ccn1 |  |  |  |  | 6 nM |  |
| CNC(=O)c1cc(Oc2ccc3c(c2)CC(C(=O)Nc2ccc(Cl)c(C(F)(F)F)c2)CC3)ccn1 (racemic) | 2900 nM |  | 32 nM |  | 28 nM |  |
| CC(C)(N)c1cc(NC(=O)[C@H]2CCc3ccc(Oc4ccnc5c4CCC(=O)N5)cc3C2)cc(C(F)(F)F)c1 | 79 nM |  |  |  |  |  |
| NCc1cc(NC(=O)[C@@H]2CCc3ccc(Oc4ccnc(NC(=O)C5CC5)c4)cc3C2)cc(C(F)(F)F)c1 | 780 nM |  | 6 nM |  | 6 nM |  |
| CC(C)(N)c1cc(C(=O)N[C@@H]2CCc3ccc(Oc4ccnc5c4CCC(=O)N5)cc3C2)cc(C(F)(F)F)c1 |  | 85% |  | 3.93 L/kg |  | CL (Mus musculus [1]): 0.44 L/h/kg; inhibition in vivo at 75 mg/kg (Mus musculus [8]): 83%; inhibition in vivo at 75 mg/kg (Mus musculus [9]): 87%; IC50 [10]: 1400 nM; IC50 [11]: 47 nM; Activity (Homo sapiens [12]): Active; concentration at 4 h [13]: 23 µM; concentration at 8 h [14]: 27 µM; inhibition in vivo at 75 mg/kg (Mus musculus [15]): 90%; concentration at 24 h [16]: 3000 nM; AUC(0-t) at 24 h [6]: 35.9 µM·h |
| NCc1cc(NC(=O)[C@H]2CCc3ccc(Oc4ccnc(NC(=O)C5CC5)c4)cc3C2)cc(C(F)(F)F)c1 | 130 nM |  | 5 nM |  | 4.5 nM |  |
| CC(C)NCc1cc(NC(=O)C2CCc3ccc(Oc4ccnc(NC(=O)C5CC5)c4)cc3C2)cc(C(F)(F)F)c1 (stereo unspecified) | 190 nM |  | 5 nM |  | 4.6 nM | AUC(0-t) at 24 h [17]: 15.6 µM·h |
| CNC(=O)c1cc(Oc2cccc(CCC(=O)Nc3ccc(Cl)c(C(F)(F)F)c3)c2)ccn1 | > 25000 nM |  | 47 nM |  | 9 nM |  |
| CN(C)Cc1cc(C(=O)N[C@@H]2CCc3ccc(Oc4ccnc5c4CCC(=O)N5)cc3C2)cc(C(F)(F)F)c1 |  | 100% |  | 0.75 L/kg |  | CL (Mus musculus [1]): 0.23 L/h/kg; concentration at 24 h [18]: 400 nM; inhibition in vivo at 100 mg/kg (Mus musculus [19]): 72%; Activity (Homo sapiens [20]): Active; IC50 [10]: > 10000 nM; concentration at 8 h [21]: 29 µM; IC50 [11]: 1100 nM; inhibition in vivo at 100 mg/kg (Mus musculus [22]): 93%; Drug uptake (Plasma): 30%; inhibition in vivo at 100 mg/kg (Mus musculus [23]): 92%; AUC(0-t) at 24 h [6]: 98.6 µM·h; concentration at 4 h [24]: 28 µM |
| CN(C)Cc1cc(C(=O)N[C@H]2CCc3ccc(Oc4ccnc(NC(=O)C5CC5)c4)cc3C2)cc(C(F)(F)F)c1 | 1100 nM |  | 3.2 nM |  |  |  |
| CNC(=O)c1cc(Oc2ccc(CCC(=O)Nc3ccc(Cl)c(C(F)(F)F)c3)cc2)ccn1 | > 25000 nM |  | 61 nM |  | 10 nM |  |
| NCc1cc(NC(=O)C2CCc3ccc(Oc4ccnc(NC(=O)C5CC5)c4)cc3C2)cc(C(F)(F)F)c1 (stereo unspecified) | 150 nM | 1.9% | 8 nM | 6.4 L/kg | 6.2 nM | CL/F [25]: 6.67 mL/min/kg; AUC(0-t) at 24 h [17]: 0.58 µM·h |
| CNCc1cc(C(=O)N[C@@H]2CCc3ccc(Oc4ccnc5c4CCC(=O)N5)cc3C2)cc(C(F)(F)F)c1 |  | 50% |  | 0.75 L/kg |  | CL (Mus musculus [1]): 0.73 L/h/kg; AUC(0-t) at 24 h [6]: 12.4 µM·h |
| CNC(=O)c1cc(Oc2ccc3c(c2)CC(C(=O)Nc2ccc(CN)c(C(F)(F)F)c2)CC3)ccn1 (stereo unspecified) | 5000 nM |  | 26 nM |  | 16 nM |  |
| CN(C)Cc1cc(NC(=O)[C@H]2CCc3ccc(Oc4ccnc(NC(=O)C5CC5)c4)cc3C2)cc(C(F)(F)F)c1 | 130 nM | 27% | 4 nM | 6.07 L/kg | 3.3 nM | CL/F [25]: 23.5 mL/min/kg; AUC(0-t) at 24 h [17]: 2.87 µM·h |
